Data reported in ChEMBL document CHEMBL6083180, “Design, synthesis, and biological activity of D-bishomo-1α,25-dihydroxyvitamin D3 analogs and their crystal structures with the vitamin D nuclear receptor” (Eur J Med Chem, 2024).
Active and inactive are the calls of the source. The calls are words filed in the database; no cut-off is given here.

How the values were obtained:
[1] = test system: ROS 17/2.8; assay: Induction of transcriptional activity in rat ROS 17/2.8 cells transfected with CYP24 incubated for 16 hrs by Luciferase reporter gene assay; assay type: functional, cell-based
[2] = test system: HCC4006; assay: Antiproliferative activity against human HCC4006 cells assessed as inhibition of cell proliferation at 10 nM incubated for 72 hrs by SRB assay relative to control; assay type: functional
[3] = test system: HCC4006; assay: Antiproliferative activity against human HCC4006 cells assessed as inhibition of cell proliferation at 1 nM incubated for 72 hrs by SRB assay relative to control; assay type: functional
[4] = test system: MCF7; assay: Antiproliferative activity against human MCF7 cells at 100 nM incubated for 72 hrs by SRB assay relative to control; assay type: functional
[5] = test system: MDA-MB-231; assay: Antiproliferative activity against human MDA-MB-231 cells incubated for 72 hrs by SRB assay; assay type: functional, cell-based
[6] = test system: CAL-51; assay: Antiproliferative activity against human CAL-51 cells incubated for 72 hrs by SRB assay; assay type: functional, cell-based
[7] = test system: MV4-11; assay: Antiproliferative activity against human MV4-11 cells at 100 nM incubated for 72 hrs by MTT assay relative to control; assay type: functional
[8] = test system: MV4-11; assay: Antiproliferative activity against human MV4-11 cells at 1000 nM incubated for 72 hrs by MTT assay relative to control; assay type: functional
[9] = test system: HL-60; assay: Antiproliferative activity against human HL-60 cells at 1000 nM incubated for 72 hrs by MTT assay relative to control; assay type: functional
[10] = test system: HL-60; assay: Antiproliferative activity against human HL-60 cells at 100 nM incubated for 72 hrs by MTT assay relative to control; assay type: functional
[11] = test system: MV4-11; assay: Effect on cell cycle distribution in human MV4-11 cells assessed as accumulation at G0/G1 phase at 10 nM incubated for 72 hrs; assay type: functional, cell-based
[12] = test system: MV4-11; assay: Effect on cell cycle distribution in human MV4-11 cells assessed as decrease in accumulation at G2/M phase at 10 to 1000 nM incubated for 72 hrs; assay type: functional, cell-based; conditions: dose 10-1000 nM
[13] = test system: MV4-11; assay: Upregulation of CD11b expression in human MV4-11 cells at 10 nM incubated for 72 hrs; assay type: functional, cell-based
[14] = test system: MV4-11; assay: Upregulation of CD14 expression in human MV4-11 cells at 10 nM incubated for 72 hrs; assay type: functional, cell-based
[15] = test system: Rattus norvegicus; assay: Induction of calcium mobilization in bone of vitamin D-deficient Sprague-Dawley rat at 780 pmol, ip administered daily for 4 days; assay type: functional, organism-based; conditions: Bone element, time 4.0 day
[16] = test system: Rattus norvegicus; assay: Induction of calcium transport in intestine of vitamin D-deficient Sprague-Dawley rat at 260 pmol, ip administered daily for 4 days; assay type: functional, organism-based; conditions: time 4.0 day
[17] = test system: HCC4006; assay: Antiproliferative activity against human HCC4006 cells incubated for 72 hrs by SRB assay; assay type: functional, cell-based; conditions: HCC4006, 72 h
[18] = test system: NCI-H1650; assay: Antiproliferative activity against human NCI-H1650 cells harboring EGFR mutation incubated for 72 hrs by SRB assay; assay type: functional, cell-based
[19] = test system: NCI-H1975; assay: Antiproliferative activity against human NCI-H1975 cells harboring EGFR mutation incubated for 72 hrs by SRB assay; assay type: functional, cell-based
[20] = test system: MCF-10A; assay: Antiproliferative activity against human MCF-10A cells incubated for 72 hrs by SRB assay; assay type: toxicity, cell-based
[21] = test system: MV4-11; assay: Effect on cell cycle distribution in human MV4-11 cells assessed as accumulation at G0/G1 phase at 100 nM incubated for 72 hrs; assay type: functional, cell-based
[22] = test system: Rattus norvegicus; assay: Induction of calcium mobilization in bone of vitamin D-deficient Sprague-Dawley rat at 2340 pmol, ip administered daily for 4 days; assay type: functional, organism-based; conditions: Bone element, time 4.0 day
[23] = test system: MV4-11; assay: Antiproliferative activity against human MV4-11 cells at 1 nM incubated for 72 hrs by MTT assay relative to control; assay type: functional
[24] = test system: MV4-11; assay: Antiproliferative activity against human MV4-11 cells at 10 nM incubated for 72 hrs by MTT assay relative to control; assay type: functional
[25] = test system: Rattus norvegicus; assay: Induction of calcium transport in intestine of vitamin D-deficient Sprague-Dawley rat at 780 pmol, ip administered daily for 4 days; assay type: functional, organism-based; conditions: time 4.0 day

| IC50 [17] [nM] | Structure (SMILES) | Activity [1] | inhibition at 0.01 µM [2] [%] | inhibition at 0.001 µM [3] [%] | inhibition at 0.1 µM [4] [%] | Activity [5] | Activity [6] | inhibition at 0.1 µM [7] [%] | inhibition at 1 µM [8] [%] | inhibition at 1 µM [9] [%] | inhibition at 0.1 µM [10] [%] | Activity [11] | Activity [12] | Activity [13] | Activity [14] | Activity [15] | Activity [16] | Activity [21] | other results |
| --- | --- | --- | --- | --- | --- | --- | --- | --- | --- | --- | --- | --- | --- | --- | --- | --- | --- | --- | --- |
| – | C[C@H](CCCC(C)(C)O)[C@@H]1CCCC[C@H]2/C(=C/C=C3C[C@@H](O)C(=CCCO)[C@H](O)C3)CCC[C@@]21C | Active; Exhibited Higher Potency Than Calcitriol | 39.1 | 37.5 | 21.3 | inactive | inactive | 25.5 | 32 | 27.5 | 22.1 | Active | Active | Active | Active | Active; Most Potent Compound And Equal In Activity To Calcitriol | Active; Most Potent Compound And Equal In Activity To Calcitriol | – | – |
| 27.7 | C=C1[C@H](O)CC(=C/C=C2\CCC[C@@]3(C)[C@H]2CCCC[C@H]3[C@H](C)CCCC(C)(C)O)C[C@H]1O | Active; Exhibited Higher Potency Than Calcitriol | 44.8 | 39.1 | 31 | inactive | inactive | 32.6 | 50 | 47.6 | 35 | – | Active | Active; Exhibited Highest Expression | Active | – | Active; Second Most Potent Compound But Exhibited Less Activity Than Calcitriol | Active | Activity [18]: Active; Maintained Its Activity At Constant Level In Tested Concentration But Without Statistical Significance For Lowest Concentrations; Activity [19]: Active; Maintained Its Activity At Constant Level In Tested Concentration But Without Statistical Significance For Lowest Concentrations; Activity [20]: Non-toxic; Activity [22]: Active; Second Most Potent Compound But Exhibited Less Activity Than Calcitriol |
| 49.6 | C=C1/C(=C\C=C2/CCC[C@@]3(C)[C@H]2CCCC[C@H]3[C@H](C)CCCC(C)(C)O)C[C@@H](O)C[C@@H]1O | Active; Exhibited Higher Potency Than Calcitriol | – | – | 37.9 | inactive | inactive | 44.2 | 42.8 | 39.7 | 17.1 | Active | Active | Active | Active | inactive | – | Active | inhibition at 0.001 µM [23]: 23.7%; inhibition at 0.01 µM [24]: 41%; Activity [25]: inactive |
